Assay results from US10363239B2, “Method for inhibiting growth of cancer cells” (Pain Therapeutics, Inc., priority 2013, dated 2019).
Where two headings read alike, the source gives them in different places.

Key:
[1] = target: FLNA pentapeptide of SEQ ID NO: 1 (Bn-VAKGL) (Homo sapiens, UniProt P21333); experiment: FITC-NLX-based FLNA screening assay (inhibition of FITC-naloxone binding to Bn-VAKGL on streptavidin plates); conditions: 10 nM FITC-NLX
[2] = test system: mu opiate receptor (MOR); experiment: MOR agonist activity using [35S]GTPγS binding assay in striatal membranes; format: biochemical; conditions: for MOR agonist activity ([35S]GTPγS binding), FLNA-Binding Compound as Agonist 1 μM + BFNA: 1 μM compound + 1 μM β-funaltrexamine
Outline: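 Striatal membranes (200 μg) were preincubated 5 min at 30 °C in HEPES pH 7.5 with 100 mM NaCl, 1 mM MgCl2 and 0.5 nM [35S]GTPγS, then 5 min more with 0.1–10 μM compound. Gαo was immunoprecipitated and bound radioactivity counted by scintillation.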

[3] = read-out: Percent Binding Inhibition, FLNA-binding compound 0.01 μM
[4] = read-out: Percent Binding Inhibition, FLNA-binding compound 0.1 μM
[5] = read-out: Percent Binding Inhibition, FLNA-binding compound 1 μM
[6] = Series C-2, 0.1 μM compound, relative to DAMGO
[7] = Series C-2, 0.1 μM compound, [35S]GTPγS binding to Gαo, striatal membranes
[8] = Series C-2, 1 μM compound + 1 μM β-FNA
[9] = Series C-2, 1 μM compound + β-FNA, relative to DAMGO + BFNA
[10] = Series C-2, 1 μM compound, relative to DAMGO
[11] = Series C-2, 1 μM compound, [35S]GTPγS binding to Gαo, striatal membranes
[12] = FLNA-binding compound 0.01 μM, read-out: Percent Binding Inhibition
[13] = FLNA-binding compound 0.1 μM, read-out: Percent Binding Inhibition
[14] = FLNA-binding compound 1 μM, read-out: Percent Binding Inhibition
[15] = Series C-1, 0.1 μM compound, relative to DAMGO
[16] = Series C-1, 0.1 μM compound, [35S]GTPγS binding to Gαo, striatal membranes
[17] = Series C-1, 1 μM compound + 1 μM β-FNA
[18] = Series C-1, 1 μM compound + β-FNA, relative to DAMGO + BFNA
[19] = Series C-1, 1 μM compound, relative to DAMGO
[20] = Series C-1, 1 μM compound, [35S]GTPγS binding to Gαo, striatal membranes
[21] = 0.1 μM compound relative to DAMGO
[22] = 1 μM compound + BFNA relative to DAMGO + BFNA
[23] = 1 μM compound relative to DAMGO

SMILES: CN1CCC2(CC1)NCC(=O)N2Cc1ccccc1 [Compound C0105M]
- inhibition at 0.01 µM [1, 3]: 55.7%
- inhibition at 0.1 µM [1, 4]: 62%
- inhibition at 1 µM [1, 5]: 68.8%
- % DAMGO (0.1 μM) [2, 6]: 104.7%
- MOR agonist activity, percent [35S]GTPγS binding at the stated compound concentration [2, 7]: 198.1%
- MOR agonist activity, percent [35S]GTPγS binding at the stated compound concentration [2, 8]: 73.1%
- % DAMGO + BFNA [2, 9]: 150.7%
- % DAMGO (1 μM) [2, 10]: 88.8%
- MOR agonist activity, percent [35S]GTPγS binding at the stated compound concentration [2, 11]: 220.3%

SMILES: CCCCN1CCC2(CC1)OCCN2S(=O)(=O)c1ccc(C(C)=O)cc1 [Compound C0101M]
- inhibition at 0.01 µM [1, 12]: 50.5%
- inhibition at 0.1 µM [1, 13]: 56.4%
- inhibition at 1 µM [1, 14]: 59%
- % DAMGO (0.1 μM) [2, 6]: 82.5%
- MOR agonist activity, percent [35S]GTPγS binding at the stated compound concentration [2, 7]: 138.2%
- MOR agonist activity, percent [35S]GTPγS binding at the stated compound concentration [2, 8]: 174.8%
- % DAMGO + BFNA [2, 9]: 368.0%
- % DAMGO (1 μM) [2, 10]: 123.4%
- MOR agonist activity, percent [35S]GTPγS binding at the stated compound concentration [2, 11]: 274.3%

SMILES: COc1cc(S(=O)(=O)N2CCC3(CC2)OCCN3S(=O)(=O)c2cc(OC)c(OC)c(OC)c2)cc(OC)c1OC [Compound C0062]
- inhibition at 0.01 µM [1, 12]: 39.5%
- inhibition at 0.1 µM [1, 13]: 49.5%
- inhibition at 1 µM [1, 14]: 48%
- % DAMGO (0.1 μM) [2, 15]: 81.9%
- Concentration of FLNA-Binding Compound as Agonist 0.1 μM [2, 16]: 127.8%
- Concentration of FLNA-Binding Compound as Agonist 1 μM + BFNA [2, 17]: 59.8%
- % DAMGO + BFNA [2, 18]: 149.9%
- % DAMGO (1 μM) [2, 19]: 134.7%
- Concentration of FLNA-Binding Compound as Agonist 1 μM [2, 20]: 310.5%

SMILES: COc1ccc(C(=O)N2CCOC23CCN(S(=O)(=O)c2ccc(OC)cc2)CC3)cc1 [Compound C0019]
- inhibition at 0.01 µM [1, 3]: 30.1%
- inhibition at 0.1 µM [1, 4]: 38.2%
- inhibition at 1 µM [1, 5]: 43.6%
- % DAMGO (0.1 μM) [2, 15]: 59.1%
- Concentration of FLNA-Binding Compound as Agonist 0.1 μM [2, 16]: 104.4%
- Concentration of FLNA-Binding Compound as Agonist 1 μM + BFNA [2, 17]: 52.8%
- % DAMGO + BFNA [2, 18]: 80.4%
- % DAMGO (1 μM) [2, 19]: 68.1%
- Concentration of FLNA-Binding Compound as Agonist 1 μM [2, 20]: 176.6%

SMILES: CS(=O)(=O)c1ccc(S(=O)(=O)N2CCC3(CC2)OCCN3S(=O)(=O)c2ccc(S(C)(=O)=O)cc2)cc1 [Compound C0009]
- inhibition at 0.01 µM [1, 3]: 41.7%
- inhibition at 0.1 µM [1, 4]: 49%
- inhibition at 1 µM [1, 5]: 53.9%
- % DAMGO (0.1 μM) [2, 15]: 85.1%
- Concentration of FLNA-Binding Compound as Agonist 0.1 μM [2, 16]: 146.3%
- Concentration of FLNA-Binding Compound as Agonist 1 μM + BFNA [2, 17]: 26.4%
- % DAMGO + BFNA [2, 18]: 41.2%
- % DAMGO (1 μM) [2, 19]: 92.6%
- Concentration of FLNA-Binding Compound as Agonist 1 μM [2, 20]: 256.2%

SMILES: O=S(=O)(c1ccc(F)c(F)c1)N1CCC2(CC1)OCCN2S(=O)(=O)c1ccc(F)c(F)c1 [Compound C0072]
- inhibition at 0.01 µM [1, 12]: 28.4%
- inhibition at 0.1 µM [1, 13]: 37.4%
- inhibition at 1 µM [1, 14]: 44%
- % DAMGO (0.1 μM) [2, 15]: 100.3%
- Concentration of FLNA-Binding Compound as Agonist 0.1 μM [2, 16]: 172.7%
- Concentration of FLNA-Binding Compound as Agonist 1 μM + BFNA [2, 17]: 67.1%
- % DAMGO + BFNA [2, 18]: 194.5%
- % DAMGO (1 μM) [2, 19]: 117.9%
- Concentration of FLNA-Binding Compound as Agonist 1 μM [2, 20]: 259.1%

SMILES: CC1CCC(C(C)C)C(OCC(O)CN2CCCC2=O)C1 (stereo not drawn) [Compound A0035]
- inhibition at 0.01 µM [1, 12]: 40.3%
- inhibition at 0.1 µM [1, 13]: 45.5%
- inhibition at 1 µM [1, 14]: 54.9%
- MOR agonist activity ([35S]GTPγS binding), FLNA-Binding Compound as Agonist 0.1 μM ([2]; 0.1 μM compound): 120.6%
- % DAMGO (0.1 μM) [2, 21]: 61.5%
- MOR agonist activity ([35S]GTPγS binding), FLNA-Binding Compound as Agonist 1 μM ([2]; 1 μM compound): 158.8%
- MOR agonist activity ([35S]GTPγS binding), FLNA-Binding Compound as Agonist 1 μM + BFNA [2]: 88.6%
- % DAMGO + BFNA [2, 22]: 119.9%
- % DAMGO (1 μM) [2, 23]: 57.5%

SMILES: CC1CCC(C(C)C)C(OCC(O)CN2CCSCC2)C1 (stereo not drawn) [Compound A0003]
- inhibition at 0.01 µM [1, 3]: 21.3%
- inhibition at 0.1 µM [1, 4]: 31.6%
- inhibition at 1 µM [1, 5]: 37.4%
- MOR agonist activity ([35S]GTPγS binding), FLNA-Binding Compound as Agonist 0.1 μM ([2]; 0.1 μM compound): 176.8%
- % DAMGO (0.1 μM) [2, 21]: 118.3%
- MOR agonist activity ([35S]GTPγS binding), FLNA-Binding Compound as Agonist 1 μM ([2]; 1 μM compound): 276.0%
- MOR agonist activity ([35S]GTPγS binding), FLNA-Binding Compound as Agonist 1 μM + BFNA [2]: 17.1%
- % DAMGO + BFNA [2, 22]: 64.5%
- % DAMGO (1 μM) [2, 23]: 119.9%
